Experimental data taken from ChEMBL document CHEMBL1147822, “One-pot synthesis and SAR study of cis-2,6-dialkyl-4-chloro-tetrahydropyrans” (2006).

Legend:
Type in all cases: functional
[1] = test system: A2780; test: Antiproliferative activity against human A2780 cells; settings: for CC50: read-out: LC50 (the source's name)
[2] = test system: WiDr; test: Antiproliferative activity against human WiDr cells
[3] = test system: SW1573; test: Antiproliferative activity against human SW1573 cells; settings: for CC50: read-out: LC50 (the source's name)

SMILES | GI50 [1] [µM] | TGI [1] [µM] | GI50 [2] [µM] | GI50 [3] [µM] | TGI [3] [µM] | CC50 [1] [µM] | LC50 (lethal concentration, 50% net cell kill) [2] [µM] | TGI [2] [µM] | CC50 [3] [µM]
CC(C)C[C@@H]1C[C@H](Cl)C[C@H](CC(C)C)O1 | 63 | 90 | > 100 | 67 | 89 |  |  |  | 
CC(C)C[C@H]1C[C@@H](Cl)C[C@@H](c2ccc([N+](=O)[O-])cc2)O1 | 21 | 64 | 38 | 30 |  |  |  |  | 
CC(C)C[C@H]1C[C@@H](Cl)C[C@@H](C)O1 | > 100 |  | > 100 | > 100 |  |  |  |  | 
CC(C)C[C@H]1C[C@@H](Cl)CCO1 | > 100 |  | > 100 | > 100 |  |  |  |  | 
COc1ccc([C@@H]2C[C@H](Cl)C[C@H](CC(C)C)O2)cc1 | 25 | 57 | 36 | 30 | 80 | 95 | 95 | 73 | 
CC(C)C[C@H]1C[C@@H](Cl)C[C@@H](c2ccccc2)O1 | 17 | 35 | 39 | 24 | 48 | 72 |  | 88 | 90
CC(C)C[C@H]1C[C@@H](Cl)C[C@@H](C2CCCCC2)O1 | 20 | 38 | 26 | 22 | 43 | 73 |  | 63 | 82
O=[N+]([O-])c1ccc([C@H]2C[C@@H](Cl)CCO2)cc1 | > 100 |  | > 100 | > 100 |  |  |  |  | 
Cl[C@H]1CCO[C@@H](c2ccccc2)C1 | > 100 |  | > 100 | > 100 |  |  |  |  | 
